This assay has as its system rats with streptozotocin-induced diabetes. Briefly: Hypoglycemic effect and relative bioavailability after oral administration. The format is in vivo, rat. The conditions noted are these: diabetic rats fasted 12 hours, oral 20 IU/kg, n = 6.

As for insulin, the “Hypoglycemic effect (plasma glucose relative to the initial value)” value is listed as “did not appreciably lower the blood glucose levels”.

Source of the values: article PMC3230571 (International Journal of Nanomedicine, 2011).
